Laboratory results as given in article PMC5859730, “Dual targeting of the cancer antioxidant network with 1,4-naphthoquinone fused Gold(I) N-heterocyclic carbene complexes” (Chemical Science, 2017).
Where two headings read alike, the source gives them in different places.

Tests used:
A549 lung cancer cells [1] = test: Cell proliferation (MTT assay) in A549 lung cancer cells; type: cell-based, human
Description: To gauge the ability of each complex to inhibit cancer cell growth, A549 lung cancer cells were treated with 1–3, 4[H][Cl], doxorubicin, and auranofin in a dose responsive manner. Cellular vitality (i.e., mitochondrial reductase activity) was then quantified colorimetrically post treatment using 3-(4,5-dimethylthiazol-2-yl)-2,5-diphenyltetrazolium bromide (MTT assay) (Table 2, Fig. 5).
(§1) Biological preparations and assays
(§2) Experimental compound preparation. Stock solutions of complexes 1–3, 4[H][Cl], auranofin (Tocris Bioscience 4600), and doxorubicin (Tocris Bioscience 2252) were dissolved in DMSO (2.5–10 mM, depending on the compound and its solubility), aliquoted, and stored at -80 °C prior to use.
(§3) Biological Materials and Cell Lines. Cell lines were obtained from the ATCC (A549 and PC-3) and Prof.
Zahid Siddik at M.D. Anderson Cancer Center (A2780 and A2780CP). Cell culture plastic ware (i.e. T-75 flasks, treated 6-well plates, treated 96-well plates, and cell scrapers) were obtained from Fisher Scientific. Cell were cultured in RPMI 1640 culture medium (+2mM glutamine, +25mM HEPES, Corning 10041cv) supplemented with 10% heat-inactivated fetal bovine serum (RMBIO FBS-BBT) and 1X penicillin-streptomycin (Sigma p4333). Unless otherwise noted, incubators were set to 37°C and 5% CO2.
Trypsin (HyClone SH30236.01) and 1X Phosphate Buffered Saline (HyClone SH30258.02, diluted in autoclaved deionized water) were utilized for general cell line maintenance and harvesting. Trace Metal […]
Cell Proliferation Studies. Cells were harvested and seeded into 96-well culture plates (Costar 07-200-90) in 100µL of culture media. They were allowed to incubate overnight at 37 °C in the presence of 5% CO2. […]
and PC-3 at 2000 cells/well. […]
were made. To each well of a 96 well plate was added 100 µL of the appropriate solution. After a total of three days, a […] aliquot of 3 mg/mL tetrazolium dye, 3-(4,5-dimethylthiazol-2-yl)-2,5-diphenyltetrazolium bromide (Alfa Aesar L11939) was added to each well, followed by a 4 hr incubation period at 37 °C. The medium was then removed, the resulting formazan was dissolved in […] DMSO and the respective absorbances were measured at 560–650 nm using a microplate reader (Molecular Devices, Sunnyvale, CA). Absorbance values were corrected for background and then normalized to wells containing untreated cells to allow for plate-to-plate comparisons. The data are shown as mean inhibition of proliferation or growth as a percentage of control cells and are from 2–3 replicate experiments. Resulting dose response curves were subjected to linear regression analysis (Origin by OriginLab, Inc.) for determination of IC50 values.

[2] = test system: thioredoxin reductase (TrxR); conditions: A549, 0.1–0.6 μM, 6 h exposure, lipoate reduction over 180 min
Description: Briefly, plateau phase A549 cells were exposed to variable doses of complexes 1, 3, 4[H][Cl], a 2 : 1 molar ratio of 4[H][Cl] and 5 (cocktail), auranofin, and doxorubicin for 6 h. Post treatment, the live cells were monitored colorimetrically over 180 min for their ability to reduce lipoate (Fig. 8a).

A549 cancer cells = test: Confocal microscopy of ROS localisation; type: cell-based, human; conditions: A549, 1.25 μM, 4 h
Description: To further elucidate the subcellular loci of ROS accentuation, confocal microscopy was employed to fluorescently image A549 cancer cells treated with vehicle (DMSO) and 1.25 μM complex 1 (Fig. 7d). All cells were selectively stained for visualization of ROS accentuation (green, CM-H2DCFDA), mitochondria (red, Mitotracker Red), and nuclei (blue, Hoechst).
Serum Protein Binding Studies.
aliquots were stored at -80°C.
in an Edvotek microcentrifuge. […] Samples
Detection of ROS by Flow Cytometry.
cells were treated with vehicle only.
g) at 5 °C. […] The pellet was
Control samples of unstained cells,
overnight. […] Post incubation, the media was
After incubation, the dye-
Cells were then imaged fluorescently
Lipoate Inhibition Assays.
well culture plates. […] The next day, appropriate
were added to each well. […] Afterwards, the liquid was then

2780CP ovarian = test: Cell proliferation (MTT assay) in 2780CP ovarian cells; type: cell-based, human; conditions: isogenic to A2780, multi-drug resistance; Table 3
Description: (§4) Further anti-proliferation studies were carried out with complex 1 and its naphthoquinone component 4[H][Cl] using the following cell lines: A2780 ovarian (a wt-p53 cell line sensitive to platinum treatment), 2780CP ovarian (isogenic to A2780 but expressing multi-drug resistance (MDR)), and PC-3 prostate (p53 null) (Table 3).
as §1, §2, §3
(§5) Zahid Siddik at M.D. Anderson Cancer Center (A2780 and A2780CP). Cell culture plastic ware (i.e. T-75 flasks, treated 6-well plates, treated 96-well plates, and cell scrapers) were obtained from Fisher Scientific. […]
(§6) were made. […] The medium was then removed, the resulting formazan was dissolved in […] DMSO and the respective absorbances were measured at 560–650 nm using a microplate reader (Molecular Devices, Sunnyvale, CA). Absorbance values were corrected for background and then normalized to wells containing untreated cells to allow for plate-to-plate comparisons. […]

A2780 ovarian = test: Cell proliferation (MTT assay) in A2780 ovarian cells; type: cell-based, human; conditions: wt-p53, platinum sensitive; Table 3
Description: as §4, §1, §2, §3, §5, §6

A549 cells = test: Detection of intracellular ROS by flow cytometry (CM-H2DCFDA); type: cell-based, human; conditions: A549, 2.5 μM, 6 h incubation, CM-H2DCFDA
[3] = Differential pulse voltammetry, quinone reduction potentials; type: physicochemical; conditions: DMSO, 0.1 M [N(nBu)4][PF6], 0.1 mM analyte, vs. SCE
Description: A series of electrochemical analyses, including cyclic voltammetry (CV) and differential pulse voltammetry (DPV), were carried out with [NnBu4][PF6] in anhydrous dimethyl sulfoxide (DMSO) in order to evaluate electronic properties of compounds 1–3 and 4[H][Cl]. […] These electrochemical features were attributed to the reduction of the quinone moiety to first produce the semiquinone radical (NQ^–) and then produce the quinone dianion (NQ^2–) forms of compounds 1–3 and 4[H][Cl].[70],[71] The quinone reduction potential in 4[H][Cl] occurs at –0.38 V, the lowest of all the molecules studied, indicative of a positively charged imidazolium ring. The quinone couple at –0.42 V observed for compound 1 is ascribed to the presence of bis(NHC). The same wave in compound 3 appears at a more negative potential (–0.47 V), presumably due to greater trans effects excreted by quinone annulated NHC ligand than the metal-bound chloride. This analysis agrees well with the differences in the observed δ^13C (Au–Ccarbene) resonances for compounds 1 and 3. […]
mM) as referenced to SCE (internal standard Fc0/+, adjusted to 0.435 V vs. SCE).

[4] = test system: DNA duplex (5'CCGCAGCCA3'/5'TGGCTGCGG3'); test: Thermal denaturation of a DNA duplex; type: binding; conditions: 1 molar equivalent, 5 μM complex and duplex
A549 lung cancer cells [5] = test: ICP-MS detection of intracellular Au (cellular uptake)

SMILES: Cc1cc(C)c(-n2c3c(n(-c4c(C)cc(C)cc4C)[c]2=[Au-]=[c]2n(-c4c(C)cc(C)cc4C)c4c(n2-c2c(C)cc(C)cc2C)C(=O)c2ccccc2C4=O)C(=O)c2ccccc2C3=O)c(C)c1.[Cl][Ag-][Cl] [Complex 1, [bis(1,3-dimesityl-4,5-naphthoquino-imidazol-2-ylidene)-gold(I)] [silver(I)dichloride]]
- Fold difference relative to 1 (A549 lung cancer cells [1]; A549, ratio of IC50 to that of 1 (Table 2)): 1
- IC50 (A549 lung cancer cells [1]; A549 lung cancer cells, MTT, 72 h, read-out: IC50): 73 nM
- IC50 (A549 lung cancer cells [1]; Table 3, error = standard error from the mean, read-out: IC50 A549 lung): 73 ± 16 nM
- Inhibition of TrxR at low concentrations [2]: inhibition of TrxR was apparent
- Subcellular locus of ROS accentuation (A549 cancer cells): ROS accentuation is arising from mitochondria
- IC50 (2780CP ovarian): 54 ± 6 nM
- IC50 (A2780 ovarian): 26 ± 7 nM
- Increase in intracellular ROS (fluorescence cell population shift) (A549 cells): 27 fold
- E 1/2 a (V) DPV ([3]; first reduction, semiquinone radical (NQ˙–)): –0.42 V
- E 1/2 b (V) DPV ([3]; second reduction, quinone dianion (NQ2–)): –1.31 V
- Thermal stabilization of DNA [4]: no thermal stabilization
- Intracellular Au levels (uptake), in words (A549 lung cancer cells [5]): identical
